Assay results published in the NIST ThermoML archive (doi:10.1016/j.jct.2016.08.010).

What was measured:
[1] = xn = mol fraction of the nth substance listed; settings: 100 kPa, Liquid; for speed of sound: Frequency=3 MHz, Sing-around technique in a fixed-path interferometer; for mass density: Vibrating tube method
[2] = excess molar enthalpy (molar enthalpy of mixing); xn = mol fraction of the nth substance listed; settings: 298.15 K, 100 kPa, Liquid, Power-compensation calorimetry

CCCCn1cc[n+](C)c1C.F[B-](F)(F)F [1-butyl-2,3-dimethylimidazolium tetrafluoroborate] + CCn1cc[n+](C)c1.F[B-](F)(F)F
[1]
Settings | mass density, 293.15 K [kg/m3] | mass density, 298.15 K [kg/m3] | mass density, 303.15 K [kg/m3] | mass density, 308.15 K [kg/m3] | speed of sound, 293.15 K [m/s] | speed of sound, 298.15 K [m/s] | speed of sound, 303.15 K [m/s] | speed of sound, 308.15 K [m/s]
x1 = 0.0952 | 1270.9 | 1267.3 | 1264.1 | 1260.5 | 1636.2 | 1624.1 | 1611.9 | 1600.4
x1 = 0.1386 | 1265.5 | 1262.1 | 1259 | 1255.6 | 1638.2 | 1626 | 1613.7 | 1602.1
x1 = 0.1754 | 1261.2 | 1257.9 | 1255 | 1251.7 | 1639.8 | 1627.4 | 1615.1 | 1603.4
x1 = 0.2361 | 1254.5 | 1251.5 | 1248.7 | 1245.7 | 1642.2 | 1629.6 | 1617.2 | 1605.3
x1 = 0.2819 | 1249.8 | 1247 | 1244.3 | 1241.4 | 1643.8 | 1631.1 | 1618.5 | 1606.6
x1 = 0.3347 | 1244.7 | 1242.1 | 1239.5 | 1236.7 | 1645.4 | 1632.5 | 1619.9 | 1607.9
x1 = 0.3722 | 1241.3 | 1238.8 | 1236.3 | 1233.6 | 1646.5 | 1633.5 | 1620.8 | 1608.7
x1 = 0.4192 | 1237.2 | 1234.9 | 1232.4 | 1229.9 | 1647.7 | 1634.6 | 1621.8 | 1609.7
x1 = 0.4451 | 1235.1 | 1232.8 | 1230.4 | 1227.9 | 1648.3 | 1635.1 | 1622.4 | 1610.2
x1 = 0.4807 | 1232.2 | 1230 | 1227.7 | 1225.2 | 1649.1 | 1635.8 | 1623 | 1610.8
x1 = 0.5327 | 1228.2 | 1226.1 | 1223.8 | 1221.4 | 1650.2 | 1636.8 | 1623.9 | 1611.7
x1 = 0.5785 | 1224.8 | 1222.8 | 1220.5 | 1218.2 | 1651 | 1637.6 | 1624.7 | 1612.4
x1 = 0.6364 | 1220.6 | 1218.7 | 1216.4 | 1214.2 | 1652.1 | 1638.5 | 1625.6 | 1613.2
x1 = 0.6729 | 1218 | 1216.1 | 1213.9 | 1211.7 | 1652.7 | 1639.1 | 1626.1 | 1613.7
x1 = 0.7342 | 1213.7 | 1211.8 | 1209.7 | 1207.6 | 1653.8 | 1640.1 | 1627.1 | 1614.6
x1 = 0.7738 | 1210.9 | 1209 | 1206.9 | 1204.9 | 1654.5 | 1640.8 | 1627.7 | 1615.2
x1 = 0.8254 | 1207.2 | 1205.4 | 1203.2 | 1201.3 | 1655.5 | 1641.7 | 1628.6 | 1616.1
x1 = 0.8739 | 1203.6 | 1201.8 | 1199.7 | 1197.8 | 1656.5 | 1642.7 | 1629.5 | 1616.9
x1 = 1 | 1193.5 | 1191.8 | 1189.7 | 1187.9 | 1659.7 | 1645.7 | 1632.5 | 1619.8

[2]
Settings | excess molar enthalpy [kJ/mol]
x1 = 0.0907 | -0.266
x1 = 0.1357 | -0.333
x1 = 0.1849 | -0.368
x1 = 0.2377 | -0.358
x1 = 0.2839 | -0.319
x1 = 0.3341 | -0.248
x1 = 0.3729 | -0.183
x1 = 0.4351 | -0.058
x1 = 0.4972 | 0.077
x1 = 0.5483 | 0.189
x1 = 0.5967 | 0.286
x1 = 0.6417 | 0.37
x1 = 0.6978 | 0.441
x1 = 0.7424 | 0.476
x1 = 0.7909 | 0.488
x1 = 0.8345 | 0.458
x1 = 0.8758 | 0.401
x1 = 0.9035 | 0.347

CCn1cc[n+](C)c1.F[B-](F)(F)F [1-ethyl-3-methylimidazolium tetrafluoroborate] + CCCCn1cc[n+](C)c1.F[B-](F)(F)F
[1]
Settings | mass density, 293.15 K [kg/m3] | mass density, 298.15 K [kg/m3] | mass density, 303.15 K [kg/m3] | mass density, 308.15 K [kg/m3] | speed of sound, 293.15 K [m/s] | speed of sound, 298.15 K [m/s] | speed of sound, 303.15 K [m/s] | speed of sound, 308.15 K [m/s]
x2 = 0 | 1283.9 | 1279.9 | 1276.3 | 1272.1 | 1631.1 | 1619.2 | 1607.4 | 1596.2
x2 = 0.0728 | 1274.4 | 1270.8 | 1267.5 | 1263.8 | 1628.1 | 1616 | 1604 | 1592.6
x2 = 0.1143 | 1269.1 | 1265.7 | 1262.6 | 1259.1 | 1626.4 | 1614.2 | 1602.2 | 1590.6
x2 = 0.148 | 1264.9 | 1261.6 | 1258.7 | 1255.3 | 1625 | 1612.7 | 1600.7 | 1589.1
x2 = 0.1737 | 1261.8 | 1258.6 | 1255.7 | 1252.4 | 1624 | 1611.6 | 1599.5 | 1587.9
x2 = 0.2204 | 1256.4 | 1253.2 | 1250.5 | 1247.4 | 1622 | 1609.6 | 1597.5 | 1585.7
x2 = 0.2684 | 1251.1 | 1248 | 1245.3 | 1242.3 | 1620 | 1607.5 | 1595.3 | 1583.5
x2 = 0.3155 | 1246.2 | 1243.1 | 1240.5 | 1237.6 | 1618 | 1605.4 | 1593.3 | 1581.3
x2 = 0.3619 | 1241.6 | 1238.6 | 1236 | 1233.2 | 1616 | 1603.3 | 1591.2 | 1579.1
x2 = 0.4167 | 1236.6 | 1233.6 | 1231.1 | 1228.3 | 1613.6 | 1600.8 | 1588.7 | 1576.6
x2 = 0.4759 | 1231.8 | 1228.7 | 1226.1 | 1223.4 | 1610.8 | 1598 | 1585.9 | 1573.7
x2 = 0.5282 | 1227.9 | 1224.7 | 1222.2 | 1219.4 | 1608.3 | 1595.5 | 1583.3 | 1571.1
x2 = 0.5742 | 1224.7 | 1221.5 | 1218.9 | 1216.1 | 1605.9 | 1593.1 | 1581 | 1568.8
x2 = 0.6356 | 1220.9 | 1217.6 | 1214.9 | 1212.1 | 1602.7 | 1589.8 | 1577.7 | 1565.6
x2 = 0.6835 | 1218.1 | 1214.8 | 1212.1 | 1209.1 | 1600 | 1587.1 | 1575.1 | 1563
x2 = 0.7381 | 1215.3 | 1211.8 | 1209 | 1206 | 1596.7 | 1583.9 | 1572 | 1559.8
x2 = 0.7892 | 1212.8 | 1209.2 | 1206.3 | 1203.2 | 1593.5 | 1580.7 | 1568.8 | 1556.8
x2 = 0.8364 | 1210.6 | 1206.9 | 1203.9 | 1200.6 | 1590.4 | 1577.6 | 1565.8 | 1553.8
x2 = 0.8932 | 1208 | 1204.2 | 1201 | 1197.6 | 1586.4 | 1573.7 | 1562 | 1550

[2]
Settings | excess molar enthalpy [kJ/mol]
x2 = 0.0714 | 0.00901
x2 = 0.1234 | 0.0162
x2 = 0.1781 | 0.024
x2 = 0.2396 | 0.0329
x2 = 0.2944 | 0.0396
x2 = 0.3468 | 0.045
x2 = 0.3972 | 0.0489
x2 = 0.4428 | 0.0513
x2 = 0.4859 | 0.0526
x2 = 0.5374 | 0.0526
x2 = 0.5884 | 0.051
x2 = 0.6291 | 0.0488
x2 = 0.6724 | 0.0454
x2 = 0.7172 | 0.0408
x2 = 0.7639 | 0.0351
x2 = 0.8109 | 0.0286
x2 = 0.8642 | 0.0203
x2 = 0.9077 | 0.0137
